Some results are limits rather than exact numbers.

The target of data set [1] is Neuronal acetylcholine receptor; alpha4/beta2 (Rattus norvegicus, UniProt P09483+P12390). Kind of data set: Binding affinity for Nicotinic acetylcholine receptor alpha4-beta2 by displacement of [3H](-)-cytisine from whole rat brain membranes. The class given is cell membranes, Membrane. Background: Displacement assays read how much labelled ligand stays bound in the presence of the test substance.

Data set [2] is described as follows: In vitro half life was determined. The class given is ADME.

Neuronal acetylcholine receptor; alpha4/beta2, sequence (P09483 whole entry): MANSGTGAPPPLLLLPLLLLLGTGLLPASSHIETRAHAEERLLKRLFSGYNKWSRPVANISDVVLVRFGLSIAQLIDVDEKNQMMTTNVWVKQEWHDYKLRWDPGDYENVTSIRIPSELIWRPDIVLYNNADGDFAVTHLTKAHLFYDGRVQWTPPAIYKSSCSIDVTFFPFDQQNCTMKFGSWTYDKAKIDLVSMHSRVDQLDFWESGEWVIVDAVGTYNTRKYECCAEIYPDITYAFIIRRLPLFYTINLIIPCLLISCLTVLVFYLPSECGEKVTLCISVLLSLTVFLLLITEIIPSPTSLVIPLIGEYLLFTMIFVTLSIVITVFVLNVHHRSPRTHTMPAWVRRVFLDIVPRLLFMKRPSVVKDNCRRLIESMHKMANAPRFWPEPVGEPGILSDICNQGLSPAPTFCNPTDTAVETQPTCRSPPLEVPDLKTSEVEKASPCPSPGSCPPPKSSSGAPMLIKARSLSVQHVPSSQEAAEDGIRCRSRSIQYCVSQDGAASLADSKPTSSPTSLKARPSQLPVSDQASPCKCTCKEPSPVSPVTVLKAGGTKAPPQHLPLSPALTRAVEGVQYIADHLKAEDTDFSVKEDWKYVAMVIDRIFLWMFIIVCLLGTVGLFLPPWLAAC
Neuronal acetylcholine receptor; alpha4/beta2, sequence (P12390 whole entry): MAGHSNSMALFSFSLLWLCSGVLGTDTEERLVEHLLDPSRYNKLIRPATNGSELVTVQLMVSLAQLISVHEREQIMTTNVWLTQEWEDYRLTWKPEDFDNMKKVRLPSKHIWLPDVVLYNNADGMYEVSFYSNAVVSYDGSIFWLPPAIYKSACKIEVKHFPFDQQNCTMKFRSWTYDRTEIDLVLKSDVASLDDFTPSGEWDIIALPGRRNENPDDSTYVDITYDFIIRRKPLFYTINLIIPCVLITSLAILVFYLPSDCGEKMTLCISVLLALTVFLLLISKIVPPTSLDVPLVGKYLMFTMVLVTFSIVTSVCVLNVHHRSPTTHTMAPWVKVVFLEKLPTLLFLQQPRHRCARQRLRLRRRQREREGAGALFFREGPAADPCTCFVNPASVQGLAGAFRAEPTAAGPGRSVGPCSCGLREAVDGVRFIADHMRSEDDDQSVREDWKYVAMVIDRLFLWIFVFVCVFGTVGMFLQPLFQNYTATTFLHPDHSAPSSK

For `Cc1cc([C@@H]2CC[C@H](c3ccccc3)N2C)on1`, the inhibitory constant (Ki) in data set [1] was above 10 µM.

Turning to `Cc1cc([C@@H]2[C@@H](CO)CCN2C)on1`, the inhibition constant (Ki) in data set [1] was above 10 µM.

In data set [1], `COC(=O)CC1CC[C@@H](c2cc(C)no2)N1C` (some centres undefined) had a Ki of 3.5 µM. That is a single-digit micromolar value.

For `Cc1cc([C@@H]2CC[C@@H](C)N2C)on1`, the half-life in data set [2] turned out to be 26 min. This molecule displayed an inhibition constant Ki in data set [1] of 0.071 µM.

`Cc1cc([C@@H]2CC[C@@H](c3ccccc3)N2C)on1` registered a Ki in data set [1] of 8 µM.

Consider `CCCC[C@@H]1CC[C@@H](c2cc(C)no2)N1C`, for which the Ki in data set [1] came out at 1.02 µM.

On to `CCCC[C@H]1CC[C@@H](c2cc(C)no2)N1C`, for which the Ki in data set [1] amounted to 3.67 µM.

`Cc1cc([C@@H]2CC[C@H](C)N2C)on1` displayed a half-life in data set [2] of 48.3 min. In addition, in data set [1], the Ki came to 5 µM.

In the case of `Cc1cc([C@@H]2C(C)CCN2C)on1` (single isomer, unassigned), in data set [1], the Ki is above 10 µM.

`Cc1cc([C@@H]2C(COC(=S)Oc3ccccc3)CCN2C)on1` (single isomer, unassigned): the inhibitory constant (Ki) in data set [1] was 0.84 µM.

With `Cc1cc([C@@H]2CCCN2C)on1` [ABT-418], in data set [2], the half-life was 47.3 min. Also, the affinity in data set [1], expressed as Ki, was 0.003 µM.

Broadly, the Ki is the equilibrium dissociation constant of an inhibitor or competing ligand from its target. Low readings indicate tighter binding, high ones weaker binding. One may read the half-life as the time needed for the level to fall by half in the phase considered. The low end stands for rapid decline, the high end for slow decline.

These data come from ChEMBL document CHEMBL1127995, “Synthesis and structure-activity relationships of pyrrolidine-modified analogs of the potent cholinergic channel activator, ABT 418” (Bioorg Med Chem Lett, 1994).
